Assay results reported in patent publication US10947271B2, “Antibacterial agents” (THE UNIVERSITY OF QUEENSLAND, priority 2014, dated 2021).

Tests used:
Assay type in all cases: cell-based
Conditions in all cases: 24 h incubation, visual reading
[1] = tested on: Staphylococcus aureus MRSA ATCC 43300; assay: MIC assay, S. aureus MRSA ATCC 43300
Method in brief: (§1)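 Overnight MHB cultures at 37° C were diluted 40-fold and grown 2-3 hrs to mid-log, then added at 5×10e5 CFU/mL to twofold compound dilutions (8 to 0.003 μg/ml). Plates were incubated 24 h at 37° C and MIC scored by eye.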

[2] = tested on: Streptococcus pneumoniae MDR ATCC 700677; assay: MIC assay, S. pneumoniae MDR ATCC 700677
Method in brief: as §1

[3] = tested on: Enterococcus faecium MDR Van A ATCC 51559; assay: MIC assay, E. faecium MDR Van A ATCC 51559
Method in brief: as §1

Structure (SMILES) | Minimum Inhibitory Concentration (MIC) Staph. aureus ATCC43300 [1] | Minimum Inhibitory Concentration (MIC) S. pneumoniae ATCC 700677 [2] | Minimum Inhibitory Concentration (MIC) E. faecium ATCC51559 [3]
CCCCCCCCCCCC(=O)N[C@@H](CCCCN)C(=O)N[C@@H](CCCCNC(=O)[C@H]1NC(=O)[C@H]2NC(=O)[C@H](NC(=O)[C@@H]3NC(=O)[C@H](CC(N)=O)NC(=O)[C@H](NC(=O)[C@@H](CC(C)C)NC)[C@H](O)c4ccc(c(Cl)c4)Oc4cc3cc(c4O[C@@H]3O[C@H](CO)[C@@H](O)[C@H](O)[C@H]3O[C@H]3C[C@](C)(N)[C@H](O)[C@H](C)O3)Oc3ccc(cc3Cl)[C@H]2O)c2ccc(O)c(c2)-c2c(O)cc(O)cc21)C(=O)O [MCC_005224] | xxxx (xxxx = 0.01-<0.1) | xxxx (xxxx = 0.01-<0.1) | xx (xx = 1-4)
CN[C@H](CC(C)C)C(=O)N[C@H]1C(=O)N[C@@H](CC(N)=O)C(=O)N[C@H]2C(=O)N[C@H]3C(=O)N[C@H](C(=O)N[C@H](C(=O)NCCCC[C@H](NC(=O)[C@H](CCCCN(C)C)NC(=O)c4ccc(Cl)cc4)C(=O)O)c4cc(O)cc(O)c4-c4cc3ccc4O)[C@H](O)c3ccc(c(Cl)c3)Oc3cc2cc(c3O[C@@H]2O[C@H](CO)[C@@H](O)[C@H](O)[C@H]2O[C@H]2C[C@](C)(N)[C@H](O)[C@H](C)O2)Oc2ccc(cc2Cl)[C@H]1O [MCC_007219] | xx (xx = 1-4) | x (x = >4) | x (x = >4)
CCCCCCCCCCCCCC(=O)N[C@@H](CCCCN)C(=O)N[C@@H](CCCCNC(=O)[C@H]1NC(=O)[C@H]2NC(=O)[C@H](NC(=O)[C@@H]3NC(=O)[C@H](CC(N)=O)NC(=O)[C@H](NC(=O)[C@@H](CC(C)C)NC)[C@H](O)c4ccc(c(Cl)c4)Oc4cc3cc(c4O[C@@H]3O[C@H](CO)[C@@H](O)[C@H](O)[C@H]3O[C@H]3C[C@](C)(N)[C@H](O)[C@H](C)O3)Oc3ccc(cc3Cl)[C@H]2O)c2ccc(O)c(c2)-c2c(O)cc(O)cc21)C(=O)NC [MCC_000627] | xxxxx (xxxxx = <0.01) | xxxxx (xxxxx = <0.01) | xx (xx = 1-4)
CCCCCCCCCC(=O)N[C@@H](CCCCN)C(=O)N1CCC(CNC(=O)[C@H]2NC(=O)[C@H]3NC(=O)[C@H](NC(=O)[C@@H]4NC(=O)[C@H](CC(N)=O)NC(=O)[C@H](NC(=O)[C@@H](CC(C)C)NC)[C@H](O)c5ccc(c(Cl)c5)Oc5cc4cc(c5O[C@@H]4O[C@H](CO)[C@@H](O)[C@H](O)[C@H]4O[C@H]4C[C@](C)(N)[C@H](O)[C@H](C)O4)Oc4ccc(cc4Cl)[C@H]3O)c3ccc(O)c(c3)-c3c(O)cc(O)cc32)CC1 [MCC_005488] | xxxx (xxxx = 0.01-<0.1) | xxxx (xxxx = 0.01-<0.1) | xx (xx = 1-4)
CCCCCCCCCCCCCC(=O)N[C@@H](CCCCN)C(=O)N[C@@H](CCCCN)C(=O)N[C@@H](Cc1cn(CCCNC(=O)[C@H]2NC(=O)[C@H]3NC(=O)[C@H](NC(=O)[C@@H]4NC(=O)[C@H](CC(N)=O)NC(=O)[C@H](NC(=O)[C@@H](CC(C)C)NC)[C@H](O)c5ccc(c(Cl)c5)Oc5cc4cc(c5O[C@@H]4O[C@H](CO)[C@@H](O)[C@H](O)[C@H]4O[C@H]4C[C@](C)(N)[C@H](O)[C@H](C)O4)Oc4ccc(cc4Cl)[C@H]3O)c3ccc(O)c(c3)-c3c(O)cc(O)cc32)nn1)C(N)=O [MCC_000979] | xxxxx (xxxxx = <0.01) | xxxxx (xxxxx = <0.01) | xxx (xxx = 0.1-<1)
